# Literature values in patent US5607691A, “Compositions and methods for enhanced drug delivery” (priority 1995, dated 1997).
# Assays:
# [1] = human or mouse skin; cited from earlier work
# [2] = in vivo; cited from earlier work
# [3] = given intravenously or intramuscularly; cited from earlier work
# [4] = in vivo; cited from earlier work; remark: listed apart in the source
# [5] = in animals; cited from earlier work
# [6] = man, incomplete and variable, averaging; cited from earlier work
compound,measurement,setting,value
Cytochrome c,iontophoretic transport across skin,[1],can be iontophoretically transported readily across human or mouse skin
"O=c1[nH]cc(F)c(=O)[nH]1 [fluorouracil, 5-fluoro-2,4 (1H,3H)-pyrimidinedione]",passage across blood-brain barrier and placenta,[2],diffuses readily across the blood-brain barrier
"O=C1Nc2ccc(Cl)cc2C(c2ccccc2Cl)=NC1O (stereo not drawn) [lorazepam, 7-chloro-5-(o-chlorophenyl)-1,3-dihydro-3-hydroxy-2H-1,4-benzodiazepin-2-one]",mean half-life,[3],about 16 hours
"C[C@H]1O[C@@H](O[C@H]2[C@@H](O)C[C@H](O[C@H]3[C@@H](O)C[C@H](O[C@H]4CC[C@@]5(C)[C@H](CC[C@@H]6[C@@H]5CC[C@]5(C)[C@@H](C7=CC(=O)OC7)CC[C@]65O)C4)O[C@@H]3C)O[C@@H]2C)C[C@H](O)[C@@H]1O [digitoxin, 3β,5β-3-[(O-2,6-dideoxy-β-D-ribo-hexopyranosyl(1→4)-O-2,6-dideoxy-β-D-ribo-hexopyranosyl-(1→4)-2,6-dideoxy-β-D-ribohexopyranosyl)oxy]-14-hydroxycard-20(22)-enolide]",absorption,[4],completely absorbed
O=C1Nc2ccc(Cl)cc2C(c2ccccc2Cl)=NC1O[C@@H]1O[C@H](C(=O)O)[C@@H](O)[C@H](O)[C@H]1O (stereo partly drawn) [lorazepam glucuronide],central nervous system activity,[5],no demonstrable central nervous system activity
"O.Sc1ncnc2nc[nH]c12 [mercaptopurine, 1,7-dihydro-6H-purine-6-thione monohydrate]",absorption of an oral dose,[6],approximately 50 % of the administered dose
